According to patent publication US20130116241A1, “NOVEL INHIBITOR COMPOUNDS OF PHOSPHODIESTERASE TYPE 10A” (AbbVie Inc., priority 2011, published 2013):
Counter-ions that a name gives are not always drawn.

Biological target: human PDE10A (UniProt Q9Y233)
Test: Measurement of PDE activity (recombinant enzyme, HTRF cAMP kit)
Format: biochemical
Details: Table 1, substrate 20 nM for PDE10, 60 minutes at 29 C, read-out: IC50
How it was run: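 Recombinant human PDE10A (10–250 pM range across PDEs) with 20 nM cAMP substrate in 20 mM Tris-HCl pH 7.5, 10 mM MgCl2, 0.1% BSA, compound pre-mixed with enzyme. Ran 60 min at 29 °C. Remaining cAMP read by HTRF, converted to % of uninhibited activity, and IC50 fitted.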

human PDE10A, sequence (Q9Y233 290-1055 limits assumed): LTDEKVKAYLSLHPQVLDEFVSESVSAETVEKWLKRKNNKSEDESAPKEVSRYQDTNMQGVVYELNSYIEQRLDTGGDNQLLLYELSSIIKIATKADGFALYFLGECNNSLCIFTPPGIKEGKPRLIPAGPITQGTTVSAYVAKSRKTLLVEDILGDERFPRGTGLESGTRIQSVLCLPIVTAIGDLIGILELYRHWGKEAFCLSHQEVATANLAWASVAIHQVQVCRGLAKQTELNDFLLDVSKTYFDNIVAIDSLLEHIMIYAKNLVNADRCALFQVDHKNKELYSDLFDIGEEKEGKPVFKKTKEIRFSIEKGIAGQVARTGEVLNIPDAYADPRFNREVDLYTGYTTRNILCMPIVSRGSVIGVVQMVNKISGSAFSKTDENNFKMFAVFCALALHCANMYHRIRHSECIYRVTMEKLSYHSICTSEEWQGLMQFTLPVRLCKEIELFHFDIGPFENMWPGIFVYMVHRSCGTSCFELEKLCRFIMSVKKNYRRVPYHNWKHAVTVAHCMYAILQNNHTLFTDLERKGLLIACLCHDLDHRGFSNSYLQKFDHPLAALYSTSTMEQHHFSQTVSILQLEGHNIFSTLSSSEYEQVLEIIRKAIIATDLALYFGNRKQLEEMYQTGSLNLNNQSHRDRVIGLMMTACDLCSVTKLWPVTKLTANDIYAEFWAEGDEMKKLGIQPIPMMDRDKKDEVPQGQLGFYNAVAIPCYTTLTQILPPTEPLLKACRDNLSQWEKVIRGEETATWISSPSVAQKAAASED

IC50, < 100 nM:
O=c1c2c(-c3cncnc3)cccc2cnn1CCc1cn2ccccc2n1 [Example 168, 2-[2-(Imidazo[1,2-a]pyridin-2-yl)ethyl]-8-(pyrimidin-5-yl)phthalazin-1(2H)-one]
O=c1c2c(-c3ccoc3)cccc2cnn1CCc1cn2ccccc2n1 [Example 170, 8-(Furan-3-yl)-2-[2-(Imidazo[1,2-a]pyridin-2-yl)ethyl]phthalazin-1(2H)-one]
O=C1Cc2ccc(-c3cccc4cnn(CCc5cn6ccccc6n5)c(=O)c34)cc2N1 [Example 171, 2-[2-(Imidazo[1,2-a]pyridin-2-yl)ethyl]-8-(2-oxo-2,3-dihydro-1H-indol-6-yl)phthalazin-1(2H)-one]
O=c1c2c(N3CCS(=O)(=O)CC3)cccc2cnn1CCc1ccc2ccccc2n1 [Example 173, 8-(1,1-Dioxidothiomorpholin-4-yl)-2-[2-(quinolin-2-yl)ethyl]-phthalazin-1(2H)-one]
O=c1c2c(N3CCOCC3)cccc2cnn1CCc1cn2ccccc2n1 [Example 174, 2-[2-(Imidazo[1,2-a]pyridin-2-yl)ethyl]-8-(morpholin-4-yl)phthalazin-1(2H)-one]
O=c1c2c(N3CC4COCC4C3)cccc2cnn1CCc1cn2ccccc2n1 (stereo not drawn) [Example 176, 2-[2-(Imidazo[1,2-a]pyridin-2-yl)ethyl]-8-(tetrahydro-1H-furo[3,4-c]pyrrol-5(3H)-yl)phthalazin-1(2H)-one hydrochloride]
O=c1c2cccc(-c3ccncc3)c2cnn1CCc1ccc2ccccc2n1 [Example 192, 5-(Pyridin-4-yl)-2-[2-(quinolin-2-yl)ethyl]phthalazin-1(2H)-one hydrochloride]
O=c1c2cccc(-c3cncnc3)c2cnn1CCc1ccc2ccccc2n1 [Example 193, 5-(Pyrimidin-5-yl)-2-[2-(quinolin-2-yl)ethyl]phthalazin-1(2H)-one hydrochloride]
Cn1nccc1-c1cccc2c(=O)n(CCc3ccc4ccccc4n3)ncc12 [Example 194, 5-(1-Methyl-1H-pyrazol-5-yl)-2-[2-(quinolin-2-yl)ethyl]phthalazin-1(2H)-one]
O=c1c2cccc(-c3cccnc3)c2cnn1CCc1cn2ccccc2n1 [Example 196, 2-[2-(Imidazo[1,2-a]pyridin-2-yl)ethyl]-5-(pyridin-3-yl)phthalazin-1(2H)-one]
O=c1c2cccc(-c3cncnc3)c2cnn1CCc1cn2ccccc2n1 [Example 197, 2-[2-(Imidazo[1,2-a]pyridin-2-yl)ethyl]-5-(pyrimidin-5-yl)phthalazin-1(2H)-on]
O=c1c2cccc(N3CCOCC3)c2cnn1CCc1cn2ccccc2n1 [Example 198, 2-[2-(Imidazo[1,2-a]pyridin-2-yl)ethyl]-5-(morpholin-4-yl)phthalazin-1(2H)-one hydrochloride]
O=c1c2cccc(N3CC4COCC4C3)c2cnn1CCc1cn2ccccc2n1 (stereo not drawn) [Example 199, 2-[2-(Imidazo[1,2-a]pyridin-2-yl)ethyl]-5-(tetrahydro-1H-furo[3,4-c]pyrrol-5(3H)-yl)phthalazin-1(2H)-one hydrochloride]
O=c1c2ccccc2c(-c2cncnc2)nn1CCc1cn2ccccc2n1 [Example 200, 2-[2-(Imidazo[1,2-a]pyridin-2-yl)ethyl]-4-(pyrimidin-5-yl)phthalazin-1(2H)-one]
Cn1nccc1-c1csc2ccn(CCc3ccc4ccccc4n3)c(=O)c12 [Example 204, 3-(1-Methyl-1H-pyrazol-5-yl)-5-[2-(quinolin-2-yl)ethyl]thieno[3,2-c]pyridin-4(5)H-one hydrochloride]
O=c1c2c(-c3ccncc3)csc2ccn1CCc1ccc2ccccc2n1 [Example 205, 3-(Pyridin-4-yl)-5-[2-(quinolin-2-yl)ethyl]thieno[3,2-c]pyridin-4(5H)-one hydrochloride]
O=c1c2c(-c3cncnc3)csc2ccn1CCc1ccc2ccccc2n1 [Example 206]
O=C1Cc2ccc(-c3csc4ccn(CCc5ccc6ccccc6n5)c(=O)c34)cc2N1 [Example 207, 3-(2-Oxoindolin-6-yl)-5-[2-(quinolin-2-yl)ethyl]thieno[3,2-c]pyridin-4(5H)-one]
O=c1c2c(-c3cccc(O)c3)csc2ccn1CCc1ccc2ccccc2n1 [Example 208, 3-(3-Hydroxyphenyl)-5-[2-(quinolin-2-yl)ethyl]thieno[3,2-c]pyridin-4(5H)-one hydrochloride]

IC50, 100 to 200 nM:
O=c1c2c(N3CCS(=O)(=O)CC3)cccc2cnn1CCc1cn2ccccc2n1 [Example 175, 8-(1,1-Dioxidothiomorpholin-4-yl)-2-[2-(imidazo[1,2-a]pyridin-2-yl)ethyl]phthalazin-1(2H)-one]
O=c1c2c(N3CCC(F)(F)CC3)cccc2cnn1CCc1cn2ccccc2n1 [Example 179, 8-(4,4-Difluoropiperidin-1-yl)-2-[2-(imidazo[1,2-a]pyridin-2-yl)ethyl]phthalazin-1(2H)-one]
O=c1c2c(N3CCCOCC3)cccc2cnn1CCc1cn2ccccc2n1 [Example 190, 2-[2-(Imidazo[1,2-a]pyridin-2-yl)ethyl]-8-(1,4-oxazepan-4-yl)phthalazin-1(2H)-one hydrochloride]
O=c1c2cccc(N3CCS(=O)(=O)CC3)c2cnn1CCc1ccc2ccccc2n1 [Example 195, 5-(1,1-Dioxidothiomorpholin-4-yl)-2-[2-(quinolin-2-yl)ethyl]phthalazin-1(2H)-one]

IC50, 200 to 500 nM:
COc1cnccc1-c1cccc2cnn(CCc3cn4ccccc4n3)c(=O)c12 [Example 167, 2-[2-(Imidazo[1,2-a]pyridin-2-yl)ethyl]-8-(3-methoxypyridin-4-yl)phthalazin-1(2H)-one]
Cn1ccc(-c2cccc3cnn(CCc4cn5ccccc5n4)c(=O)c23)n1 [Example 169, 2-[2-(Imidazo[1,2-a]pyridin-2-yl)ethyl]-8-(1-methyl-1H-pyrazol-3-yl)phthalazin-1(2H)-one]
O=c1c2c(N3CCCCC3)cccc2cnn1CCc1cn2ccccc2n1 [Example 181, 2-[2-(Imidazo[1,2-a]pyridin-2-yl)ethyl]-8-(piperidin-1-yl)phthalazin-1(2H)-one hydrochloride]
CC(C)(C)OC(=O)N1CC=C(c2cccc3cnn(CCc4cn5ccccc5n4)c(=O)c23)CC1 [Example 191, tert-Butyl 4-{3-[2-(imidazo[1,2-a]pyridin-2-yl)ethyl]-4-oxo-3,4-dihydrophthalazin-5-yl}-3,6-dihydropyridine-1(2H)-carboxylate]
O=c1c2ccccc2c(N2CCOCC2)nn1CCc1cn2ccccc2n1 [Example 201, 2-[2-(Imidazo[1,2-a]pyridin-2-yl)ethyl]-4-(morpholin-4-yl)phthalazin-1(2H)-one]
O=c1c2c(-c3ccncc3O)csc2ccn1CCc1ccc2ccccc2n1 [Example 203, 3-(3-Hydroxypyridin-4-yl)-5-[2-(quinolin-2-yl)ethyl]thieno[3,2-c]pyridin-4(5H)-one hydrochloride]
CCc1ccc(CCn2ccc3scc(-c4ccncc4)c3c2=O)nc1 [Example 209, 5-[2-(5-Ethylpyridin-2-yl)ethyl]-3-(pyridin-4-yl)thieno[3,2-c]pyridin-4(5H)-one hydrochloride]
